Measurements published in patent US9364482B2, “Substituted benzofuran compounds and methods of use thereof for the treatment of viral diseases” (priority 2013, dated 2016).
Where two headings read alike, the source gives them in different places.

Assays:
HCV replicon genotype 1a = assay: microbe, parasite or virus in culture; assay type: cell-based, hepatitis C virus (HCV)
HCV replicon genotype 1b = assay: microbe, parasite or virus in culture; assay type: cell-based, hepatitis C virus (HCV)
[1] = Hepatitis C virus, 96 h, read-out: 1a IC50 (nM)
[2] = Hepatitis C virus, 96 h, read-out: 1b IC50 (nM)

Structure (SMILES)	IC50 (HCV replicon genotype 1a; [1]) [nM]	IC50 (HCV replicon genotype 1b; [2]) [nM]	IC50 (HCV replicon genotype 1a; read-out: 1a IC50) [nM]	IC50 (HCV replicon genotype 1b; read-out: 1b IC50) [nM]
CNC(=O)c1c(-c2ccc(F)cc2)oc2cc(N(C)S(C)(=O)=O)c(-c3ccc4c(n3)C(=O)N(Cc3ccccc3)CO4)cc12 [Compound 1, 5-(3-benzyl-4-oxo-3,4-dihydro-2H-pyrido[2,3-e][1,3]oxazin-6-yl)-2-(4-fluorophenyl)-N-methyl-6-(N-methylmethylsulfonamido)benzofuran-3-carboxamide]	3.22	2.44		
CNC(=O)c1c(-c2ccc(F)cc2)oc2cc(N(C)S(C)(=O)=O)c(-c3ccc4c(n3)C(=O)N(c3ccc(F)cc3)CO4)cc12 [Compound 2]	24.8	3.34		
CNC(=O)c1c(-c2ccc(F)cc2)oc2cc(N(C)S(C)(=O)=O)c(-c3ccc4c(n3)C(=O)N(c3cccc(F)c3)CO4)cc12 [Compound 3]	4.83	2.84		
CNC(=O)c1c(-c2ccc(F)cc2)oc2cc(N(C)S(C)(=O)=O)c(-c3ccc4c(n3)C(=O)N(CCc3ccccc3)CO4)cc12 [Compound 4]	39.9	15.2		
CNC(=O)c1c(-c2ccc(F)cc2)oc2cc(N(C)S(C)(=O)=O)c(-c3ccc4c(n3)C(=O)N(Cc3ccc(OC)cc3)CO4)cc12 [Compound 5]	3.06	1.59		
CNC(=O)c1c(-c2ccc(F)cc2)oc2cc(N(C)S(C)(=O)=O)c(-c3ccc4c(n3)C(=O)N(Cc3cccc(F)c3)CO4)cc12 [Compound 7]	1.48	1.06		
CNC(=O)c1c(-c2ccc(F)cc2)oc2cc(N(C)S(C)(=O)=O)c(-c3ccc4c(n3)C(=O)N(Cc3ccccc3F)CO4)cc12 [Compound 8]	5.87	2.62		
CNC(=O)c1c(-c2ccc(F)cc2)oc2cc(N(C)S(C)(=O)=O)c(-c3ccc4c(n3)C(=O)N(Cc3ccc(C#N)cc3)CO4)cc12 [Compound 9]	8.03	3.91		
CNC(=O)c1c(-c2ccc(F)cc2)oc2cc(N(C)S(C)(=O)=O)c(-c3ccc4c(n3)C(=O)N(Cc3ccc(F)cn3)CO4)cc12 [Compound 11, 2-(4-fluorophenyl)-5-(3-((5-fluoropyridin-2-yl)methyl)-4-oxo-3,4-dihydro-2H-pyrido[2,3-e][1,3]oxazin-6-yl)-N-methyl-6-(N-methylmethylsulfonamido)benzofuran-3-carboxamide]	15.3	7.68		
CNC(=O)c1c(-c2ccc(F)cc2)oc2cc(N(C)S(C)(=O)=O)c(-c3ccc4oc(=O)n(Cc5ccc(F)cc5)c(=O)c4n3)cc12 [Compound 14, 5-(3-(4-fluorobenzyl)-2,4-dioxo-3,4-dihydro-2H-pyrido[2,3-e][1,3]oxazin-6-yl)-2-(4-fluorophenyl)-N-methyl-6-(N-methylmethylsulfonamido)benzofuran-3-carboxamide]	435	35.9		
CNC(=O)c1c(-c2ccc(F)cc2)oc2cc(N(C)S(C)(=O)=O)c(-c3cnc4c(c3)C(=O)NC(C3CC3)N4)cc12 (stereo not shown) [Compound 16]	128	39.2		
CNC(=O)c1c(-c2ccc(F)cc2)oc2cc(N(C)S(C)(=O)=O)c(-c3cnc4ncn(-c5ccc(F)cc5)c(=O)c4c3)cc12 [Compound 22]	16.2	4.12		
CNC(=O)c1c(-c2ccc(F)cc2)oc2cc(N(C)S(C)(=O)=O)c(-c3cnc4ncn(-c5cccc(F)c5)c(=O)c4c3)cc12 [Compound 23]	3.98	3.24		
CNC(=O)c1c(-c2ccc(F)cc2)oc2cc(N(C)S(C)(=O)=O)c(-c3cnc4ncn(Cc5ccc(F)cc5)c(=O)c4c3)cc12 [Compound 24]	2.59	2.57		
CNC(=O)c1c(-c2ccc(F)cc2)oc2cc(N(C)S(C)(=O)=O)c(-c3cnc4ncn([C@H](C)c5ccc(F)cc5)c(=O)c4c3)cc12 [Compound 25]	16.3	11.9		
CNC(=O)c1c(-c2ccc(F)cc2)oc2cc(N(C)S(C)(=O)=O)c(-c3ccc4c(n3)C(=O)N([C@H](C)c3ccc(F)cc3)CO4)cc12 [Compound 30, (R)-2-(4-fluorophenyl)-5-(3-(1-(4-fluorophenyl)ethyl)-4-oxo-3,4-dihydro-2H-pyrido[2,3-e][1,3]oxazin-6-yl)-N-methyl-6-(N-methylmethylsulfonamido)benzofuran-3-carboxamide]			0.981	2.23
CNC(=O)c1c(-c2ccc(F)cc2)oc2cc(N(C)S(C)(=O)=O)c(-c3ccc4c(n3)C(=O)N([C@@H](C)c3ccc(F)cc3)CO4)cc12 [Compound 31, (S)-2-(4-fluorophenyl)-5-(3-(1-(4-fluorophenyl)ethyl)-4-oxo-3,4-dihydro-2H-pyrido[2,3-e][1,3]oxazin-6-yl)-N-methyl-6-(N-methylmethylsulfonamido)benzofuran-3-carboxamide]			41.8	12.5
CNC(=O)c1c(-c2ccc(F)cc2)oc2ccc(-c3ccc4c(n3)C(=O)N(C(C)(C)c3ccc(F)cc3)CO4)cc12 [Compound 33, 2-(4-fluorophenyl)-5-(3-(2-(4-fluorophenyl)propan-2-yl)-4-oxo-3,4-dihydro-2H-pyrido[2,3-e][1,3]oxazin-6-yl)-N-methylbenzofuran-3-carboxamide]	708	1690		
CNC(=O)c1c(-c2ccc(F)cc2)oc2ccc(-c3ccc4c(n3)C(=O)N(Cc3ccc(F)cc3)CO4)cc12 [Compound 34, 5-(3-(4-fluorobenzyl)-4-oxo-3,4-dihydro-2H-pyrido[2,3-e][1,3]oxazin-6-yl)-2-(4-fluorophenyl)-N-methylbenzofuran-3-carboxamide]	8930	10400		
CNC(=O)c1c(-c2ccc(F)cc2)oc2cc(N(C)S(C)(=O)=O)c(-c3ccc4c(n3)C(=O)N(Cc3ccc(F)cc3)CC4)cc12 [Compound 36, 5-(7-(4-fluorobenzyl)-8-oxo-5,6,7,8-tetrahydro-1,7-naphthyridin-2-yl)-2-(4-fluorophenyl)-N-methyl-6-(N-methylmethylsulfonamido)benzofuran-3-carboxamide]	1.08	0.527		
CNC(=O)c1c(-c2ccc(F)cc2)oc2ccc(-c3ccc4c(n3)C(=O)N(Cc3ccc(F)cc3)CC4)cc12 [Compound 37, 5-(7-(4-fluorobenzyl)-8-oxo-5,6,7,8-tetrahydro-1,7-naphthyridin-2-yl)-2-(4-fluorophenyl)-N-methylbenzofuran-3-carboxamide]	77.3	11.4		
CNC(=O)c1c(-c2ccc(F)cc2)oc2cc(N(C)S(C)(=O)=O)c(-c3ccc4nnn([C@H](COC)c5ccc(F)cc5)c(=O)c4c3)cc12 [Compound 39, (S)-2-(4-fluorophenyl)-5-(3-(1-(4-fluorophenyl)-2-methoxyethyl)-4-oxo-3,4-dihydrobenzo[d][1,2,3]triazin-6-yl)-N-methyl-6-(N-methylmethylsulfonamido)benzofuran-3-carboxamide]	4.04	9.27		
CNC(=O)c1c(-c2ccc(F)cc2)oc2cc(N(C)S(C)(=O)=O)c(-c3ccc4nnn([C@H](CO)c5ccc(F)cc5)c(=O)c4c3)cc12 [Compound 40, 2-(4-fluorophenyl)-5-{3-[(1S)-1-(4-fluorophenyl)-2-hydroxyethyl]-4-oxo-3,4-dihydro-1,2,3-benzotriazin-6-yl}-N-methyl-6-[methyl(methylsulfonyl)amino]-1-benzofuran-3-carboxamide]	6.19	9.03		
CNC(=O)c1c(-c2ccc(F)cc2)oc2cc(N(C)S(C)(=O)=O)c(-c3ccc4nnn([C@@H](COC)c5ccc(F)cc5)c(=O)c4c3)cc12 [Compound 41, 2-(4-fluorophenyl)-5-{3-[(1R)-1-(4-fluorophenyl)-2-methoxyethyl]-4-oxo-3,4-dihydro-1,2,3-benzotriazin-6-yl}-N-methyl-6-[methyl(methylsulfonyl)amino]-1-benzofuran-3-carboxamide]	18.1	16.2		
CNC(=O)c1c(-c2ccc(F)cc2)oc2cc(N(C)S(C)(=O)=O)c(-c3ccc4nnn(Cc5ccccc5)c(=O)c4c3)cc12 [Compound 42, 5-(3-benzyl-4-oxo-3,4-dihydro-1,2,3-benzotriazin-6-yl)-2-(4-fluorophenyl)-N-methyl-6-[methyl(methylsulfonyl)amino]-1-benzofuran-3-carboxamide]	9.48	9.55		
CNC(=O)c1c(-c2ccc(F)cc2)oc2cc(N(C)S(C)(=O)=O)c(-c3ccc4nnn(C(CO)c5ccccc5)c(=O)c4c3)cc12 (stereo not shown) [Compound 43, 2-(4-fluorophenyl)-5-[3-(2-hydroxy-1-phenylethyl)-4-oxo-3,4-dihydro-1,2,3-benzotriazin-6-yl]-N-methyl-6-[methyl(methylsulfonyl)amino]-1-benzofuran-3-carboxamide]	15.1	9.66		
CNC(=O)c1c(-c2ccc(F)cc2)oc2cc(N(C)S(C)(=O)=O)c(-c3ccc4nnn(Cc5ccc(F)cc5)c(=O)c4c3)cc12 [Compound 44, 5-[3-(4-fluorobenzyl)-4-oxo-3,4-dihydro-1,2,3-benzotriazin-6-yl]-2-(4-fluorophenyl)-N-methyl-6-[methyl(methylsulfonyl)amino]-1-benzofuran-3-carboxamide]	5.62	10.5		
CNC(=O)c1c(-c2ccc(F)cc2)oc2cc(N(C)S(C)(=O)=O)c(-c3ccc4nnn([C@@H](C)c5ccc(F)cc5)c(=O)c4c3)cc12 [Compound 45, 2-(4-fluorophenyl)-5-{3-[(1S)-1-(4-fluorophenyl)ethyl]-4-oxo-3,4-dihydro-1,2,3-benzotriazin-6-yl}-N-methyl-6-[methyl(methylsulfonyl)amino]-1-benzofuran-3-carboxamide]	35	17.5		
CNC(=O)c1c(-c2ccc(F)cc2)oc2cc(N(C)S(C)(=O)=O)c(-c3ccc4nnn([C@H](C)c5ccc(F)cc5)c(=O)c4c3)cc12 [Compound 46, 2-(4-fluorophenyl)-5-{3-[(1R)-1-(4-fluorophenyl)ethyl]-4-oxo-3,4-dihydro-1,2,3-benzotriazin-6-yl}-N-methyl-6-[methyl(methylsulfonyl)amino]-1-benzofuran-3-carboxamide]	7.65	10.2		
